Measured values taken from ChEMBL document CHEMBL1131204, “Flavonoid derivatives as adenosine receptor antagonists: a comparison of the hypothetical receptor binding site based on a comparative molecular field analysis model” (J Med Chem, 1998).
Several values for one entry are separate records, joined by “and”; a condition that tells them apart may be missing. Identical values can stand only once.

Assays:
[1] = molecular target: T1, Adenosine receptor A1 (Rattus norvegicus) (UniProt P25099); test: Ability to displace [3H]N6-phenylisopropyladenosine binding from adenosine A1 receptor.
T1 sequence (whole entry): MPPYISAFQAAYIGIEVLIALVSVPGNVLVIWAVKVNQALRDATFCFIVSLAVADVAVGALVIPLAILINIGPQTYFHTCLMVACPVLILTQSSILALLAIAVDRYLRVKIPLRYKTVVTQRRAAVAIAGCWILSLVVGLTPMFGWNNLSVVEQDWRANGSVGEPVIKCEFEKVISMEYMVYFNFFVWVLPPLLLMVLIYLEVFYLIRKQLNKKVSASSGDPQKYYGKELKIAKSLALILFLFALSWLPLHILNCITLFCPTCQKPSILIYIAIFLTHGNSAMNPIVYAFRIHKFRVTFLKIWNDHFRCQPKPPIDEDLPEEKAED

[2] = molecular target: Adenosine receptor A2a (Rattus norvegicus) (UniProt P30543); test: Ability to displace [3H]-CGS- 21680 binding from adenosine A2A receptor.
Sequence of Adenosine receptor A2a (Rattus norvegicus) (P30543 whole entry): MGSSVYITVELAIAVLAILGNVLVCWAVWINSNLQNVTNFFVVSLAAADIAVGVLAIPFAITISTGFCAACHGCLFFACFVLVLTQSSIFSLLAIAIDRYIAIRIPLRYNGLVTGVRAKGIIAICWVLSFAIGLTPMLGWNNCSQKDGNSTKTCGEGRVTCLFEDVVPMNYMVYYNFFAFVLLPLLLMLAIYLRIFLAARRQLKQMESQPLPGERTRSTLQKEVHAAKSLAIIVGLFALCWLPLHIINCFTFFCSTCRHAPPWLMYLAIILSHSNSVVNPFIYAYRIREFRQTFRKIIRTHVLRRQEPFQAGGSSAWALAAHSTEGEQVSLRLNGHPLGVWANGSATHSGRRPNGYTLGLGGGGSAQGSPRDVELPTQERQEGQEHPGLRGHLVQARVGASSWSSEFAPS

[3] = molecular target: T2, Adenosine receptor A3 (Homo sapiens) (UniProt P0DMS8); test: Ability to displace [125I]-AB-MECA binding from adenosine A3 receptor.
T2 sequence (whole entry): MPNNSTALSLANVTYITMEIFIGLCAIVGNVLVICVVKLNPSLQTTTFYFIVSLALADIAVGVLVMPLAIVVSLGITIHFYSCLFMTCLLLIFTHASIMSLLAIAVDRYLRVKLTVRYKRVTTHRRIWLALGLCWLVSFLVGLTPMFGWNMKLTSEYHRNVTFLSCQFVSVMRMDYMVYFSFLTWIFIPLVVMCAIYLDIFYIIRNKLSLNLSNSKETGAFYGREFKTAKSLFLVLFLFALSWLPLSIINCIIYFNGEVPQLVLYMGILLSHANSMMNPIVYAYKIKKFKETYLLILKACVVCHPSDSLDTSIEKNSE

SMILES | pKi(uM) [1] | pKi(uM) [2] | pKi(uM) [3]
COc1c2ccoc2cc2oc(/C=C/c3ccccc3)cc(=O)c12 | -1.51 | -1.06 | -0.92
CCOc1ccc(-c2oc3cc(OCC)cc(OCC)c3c(=O)c2OCC)c(OCC)c1 |  | -1.42 | -0.86
COc1ccc2oc(C#Cc3ccccc3)c(O)c(=O)c2c1 |  |  | -1.38
O=C1CC(c2ccccc2)Oc2ccccc21 (stereo unspecified) |  |  | -1.21
O=c1c(Cl)c(-c2ccccc2)oc2ccc(Cl)cc12 |  | -1.74 | 
COc1cc(O)c2c(c1)OC(c1ccc(O)cc1)CC2=O (stereo unspecified) | -0.91 | -1.55 | -0.53
CCOc1c(-c2c(C)cc(C)cc2C)oc2ccc(Cl)cc2c1=O |  |  | -0.72
O=c1cc(-c2ccccc2)oc2c1ccc1ccccc12 | 0.1 | -0.12 | 
COc1ccc(-c2cc(=O)c3c(OC)c(OC)c(OC)cc3o2)cc1 | -0.11 |  | -0.65
COc1ccc(-c2oc3cc(OC)cc(OC)c3c(=O)c2OC)cc1 | -0.03 |  | -0.53
COC1(OC)Cc2oc(-c3ccc(O)cc3O)c(CC=C(C)C)c(=O)c2C(O)=C1/C=C/C(C)C |  |  | -0.66
O=C1CC(c2ccc(O)cc2)Oc2ccccc21 (stereo unspecified) | -1.06 |  | -1.36
COc1cc(OC)c2c(=O)c(OC)c(-c3cc(OC)c(OC)c(OC)c3)oc2c1 |  |  | -0.82
O=c1c(O)c(-c2ccc(O)c(O)c2)oc2cc(O)cc(O)c12 |  | -0.84 | 
O=c1c(Cl)c(-c2ccccc2)oc2ccccc12 |  | -1.4 | -1.06
O=c1cc(-c2ccccc2)oc2cc(O)ccc12 | -0.48 | -0.43 | 
COc1cc(OC)c(-c2oc3ccccc3c(=O)c2O)c(OC)c1 | -0.86 |  | -1.7
CC(=O)Oc1cc(OC(C)=O)c2c(=O)c(OC(C)=O)c(-c3ccccc3)oc2c1 | -1.06 |  | -1.24
COc1c2ccoc2cc2oc(C=O)cc(=O)c12 |  |  | -1.95
CCOc1c2ccoc2cc2oc(/C=C/C=C/c3ccccc3)cc(=O)c12 |  | -2.22 | -1.66
CCOc1c2ccoc2cc2oc(/C=C/c3ccccc3)cc(=O)c12 | -1.55 | -1.53 | -0.06

SMILES | pKi(uM) [1] | pKi(uM) [2] | pKi(uM) [3]
Cc1ccc(-c2oc3ccc(Cl)cc3c(=O)c2Cl)c(C(C)C)c1 |  |  | 0.25
COc1ccc2c(c1)C(=O)C(O)C(/C=C/c1ccccc1)O2 (stereo unspecified) |  |  | -1.32
O=c1cc(-c2ccccc2)oc2cccc(O)c12 |  | -0.79 | 
CCOc1cc(OCC)c2c(=O)c(OCC)c(-c3ccccc3)oc2c1 | 0.22 | -0.52 | 0.44
COc1ccc(-c2cc(=O)c3ccc(O)cc3o2)cc1OC | -1.27 | -1.54 | 
CC(=O)Oc1cc(OC(C)=O)c2c(c1)OC(c1ccccc1)C(OC(C)=O)C2=O (stereo unspecified) |  | -1.75 | 
O=C1CC(c2ccccc2O)Oc2ccccc21 (stereo unspecified) | -0.42 | -1.25 | -0.78
O=c1cc(-c2ccc(O)cc2)oc2cc(O)cc(O)c12 | -0.48 | -0.88 | 
COc1c2ccoc2cc2oc(C)cc(=O)c12 |  | -1.63 | -1.78
COc1c(O)cc2oc(-c3ccc(O)cc3)cc(=O)c2c1O | -0.21 | -0.88 | 
O=c1c(O)c(-c2ccccc2)oc2cc(O)cc(O)c12 |  |  | -0.23
CCOc1ccc(-c2oc3cc(OCC)cc(O)c3c(=O)c2OCC)c(OCC)c1 |  |  | -0.68
O=C1c2ccccc2OC(c2ccccc2O)C1O (stereo unspecified) | -1.96 |  | 
COc1cc2oc(-c3ccc(O)cc3)cc(=O)c2c(O)c1OC | -0.08 | -0.48 | -0.5
O=c1cc(-c2ccccc2)oc2ccccc12 | -0.52 | -0.54 | -1.23
COc1ccc2c(c1)C(=O)C(O)C(C#Cc1ccccc1)O2 (stereo unspecified) | -1.7 |  | -0.91
CCOc1cc(O)c2c(=O)c(OCC)c(-c3ccccc3)oc2c1 |  | -1.8 | 0.13
COc1ccc2c(=O)c(O)c(-c3ccc(O)c(O)c3)oc2c1 |  |  | -0.14
COc1c2ccoc2cc2oc(/C=N/c3ccccc3)cc(=O)c12 |  |  | -0.96
COc1cc(OC)c2c(=O)c(OC)c(-c3ccccc3)oc2c1 | 0.29 | -0.81 | 0.08 and -0.09
COc1ccc(-c2cc(=O)c3c(O)cc(C)cc3o2)cc1 | -0.53 | -1.45 | -1.7
